Results as given in patent publication US7319153B2, “6,13-Bis(thienyl)pentacene compounds” (3M Innovative Properties Company, priority 2005, dated 2008).
Like-named read-outs stand apart in the source and are kept apart here.

Assays:
[1] = isolation and purification; cited from earlier work
[2] = Solubility in tetrahydrofuran-d8 by proton NMR of saturated solutions; assay type: physicochemical
Procedure: The solubility of each compound prepared in Examples 1 to 4 was determined by the following method. The proton NMR spectra of saturated solutions of the compounds prepared in Examples 1 to 4 dissolved in tetrahydrofuran-d8 were compared with the proton NMR spectrum of a standard solution (i.e., known concentration) of the compound of Example 2, which was 2-hexyl-5-[ 13-(5-hexylthien-2-yl)pentacene-6-yl]thiophene, dissolved in tetrahydrofuran-d8. The same lot of tetrahydrofuran-d8 was used to make all of the solutions. The standard solution was prepared by dissolving 7.0 mg of the compound of Example 2 in 936 mg of tetrahydrofuran-d8 to give a 0.742 weight percent solution. Saturated solutions of the compounds of Examples 1 to 4 were prepared by placing an excess of the corresponding compound in approximately 1 mL of tetrahydrofuran-d8 and mixing for 30 minutes. The solutions were filtered and placed in an NMR tube and the corresponding proton NMR spectra were obtained.
For the standard (0.742 weight percent solution of the compound of Example 2), the NMR integration for the absorption at 8.59 ppm (the most down-field absorption corresponding to the four protons at positions 5, 7, 12 and 14) was compared to the absorption of the residual protio-tetrahydrofuran at 3.6 ppm to give a relative ratio of moles of the compound of Example 2 to moles of protio-tetrahydrofuran of 0.33. The molar ratio of the compound of Example 2 to tetrahydrofuran (protio- and deutero-) in the standard solution is 8.83×10^−4. This molar ratio (8.83×10^−4) divided by the relative ratio of moles of the compound of Example 2 to moles of protio-tetrahydrofuran (0.33) gave a factor of 2.68×10^−3. Multiplying this factor by the proton NMR integration for the saturated solutions of the corresponding compounds of Example 1 to 4 gave the ratio of moles of pentacene derivative to moles of tetrahydrofuran in the saturated solutions. This allowed the calculation of the concentrations for the various solutions of compounds of Examples 1 to 4 as shown in the table below.

[3] = Stability in tetrahydrofuran (endoperoxide formation by proton NMR); assay type: physicochemical; details: for Mole percent impurity—120 hours: endoperoxide in tetrahydrofuran-d8 after 120 hours, protected from light; for Mole percent impurity—120 hours / Mole percent increase: room temperature; for Mole percent impurity—initial: endoperoxide in tetrahydrofuran-d8 solution; for Mole percent increase: increase of endoperoxide over 120 hours in tetrahydrofuran-d8, protected from light
Procedure: The solution stabilities of the compounds of Examples 1 to 4 were determined by proton NMR analysis of saturated solutions of the corresponding compounds in tetrahydrofuran-d8. Comparing the proton NMR integration of the four protons at positions 5, 7, 12 and 14 (8.51 ppm to 8.69 ppm) to the integration of the four corresponding protons from the endoperoxide (the major and only detectable decomposition product, 7.93 ppm to 7.98 ppm), the percent increase of this impurity was determined for each compound. The solutions were prepared by dissolving the corresponding compound in tetrahydrofuran-d8 and the proton NMR spectra were obtained to determine the initial concentration of endoperoxide for each sample. The solutions were allowed to stand protected from light at room temperature (i.e., 20° C. to 25° C.) for 120 hours. Proton NMR spectra of the aged samples were taken and the increase in absorption of the endoperoxide was used to calculate the data shown in Table 3. The formation of the endoperoxide is shown in the following reaction for compounds of Formula II.

[4] = small quantity extracted into refluxing 1,2-dichlorobenzene; cited from earlier work
[5] = saturated solution in tetrahydrofuran-d8, mixed 30 minutes, filtered

Molarity in THF [2, 5] | Moles of compound/moles of THF [2, 5] | Weight percent in THF [2, 5] [weight percent] | Mole percent impurity—120 hours [3] [mole percent] | Mole percent impurity—initial [3] [mole percent] | Mole percent increase [3] [mole percent] | Molarity in THF [2] | Moles of compound/moles of THF [2] | Structure (SMILES) | air and light sensitivity [1] | time to bleaching [4]
 |  |  |  |  |  |  |  | C[Si](C)(C)c1cc2cc3cc4cc5cc([Si](C)(C)C)c([Si](C)(C)C)cc5cc4cc3cc2cc1[Si](C)(C)C [2,3,9,10-tetrakis(trimethylsilyl)pentacene] | highly air- and light-sensitive | 
6.58 × 10^−3 | 5.35 × 10^−4 | 0.327 | 21.26 | 5.66 | 15.60 |  |  | c1csc(-c2c3cc4ccccc4cc3c(-c3cccs3)c3cc4ccccc4cc23)c1 [Example 1, 2-(13-thien-2-ylpentacene-6-yl)thiophene] |  | 
1.22 × 10^−1 | 1.08 × 10^−2 | 8.35 | 10.71 | 2.91 | 7.80 |  |  | CCCCCCc1ccc(-c2c3cc4ccccc4cc3c(-c3ccc(CCCCCC)s3)c3cc4ccccc4cc23)s1 [Example 2, 2-hexyl-5-[13-(5-hexylthien-2-yl)pentacene-6-yl]thiophene] |  | 
 |  | 0.135 | 6.54 | 2.91 | 3.63 | 1.98 × 10^−3 | 1.61 × 10^−4 | c1csc(-c2ccc(-c3c4cc5ccccc5cc4c(-c4ccc(-c5cccs5)s4)c4cc5ccccc5cc34)s2)c1 [Example 4, 5-[13-(2,2′-bithien-5-yl)pentacen-6-yl]-2,2′-bithiophene] |  | 
 |  |  |  |  |  |  |  | c1ccc2cc3cc4cc5ccccc5cc4cc3cc2c1 [pentacene] |  | less than 5 minutes

Structure (SMILES) | Molarity in THF [2, 5] | Moles of compound/moles of THF [2, 5] | Weight percent in THF [2, 5] [weight percent] | Mole percent impurity—120 hours [3] [mole percent] | Mole percent impurity—initial [3] [mole percent] | Mole percent increase [3] [mole percent] | Molarity in THF [2] | Moles of compound/moles of THF [2] | air and light sensitivity [1] | time to bleaching [4]
C[Si](C)(C)c1ccc(-c2c3cc4ccccc4cc3c(-c3ccc([Si](C)(C)C)s3)c3cc4ccccc4cc23)s1 [Example 3, trimethyl(5-{13-[5-(trimethylsilyl)thien-2-yl]pentacen-6-yl}thien-2-yl)silane] | 3.54 × 10^−2 | 2.94 × 10^−3 | 2.34 | 4.76 | 1.96 | 2.80 |  |  |  | 
